Assay results taken from patent US20230219898A1, “COMPOUNDS AND METHODS FOR BLOCKING APOPTOSIS AND INDUCING AUTOPHAGY” (President and Fellows of Harvard College, priority 2020, published 2023).

How the values were obtained:
His-TRADD-N = target: T1, His-TRADD-N (Homo sapiens, UniProt Q15628); assay: Thermal shift assay with His-TRADD-N; type: binding
T1 construct: expression constructs encoding Flag-TRADD-N(1-179) and HA-TRADD-C(180-312); made in house; host or cells: E. coli BL21 (DE3), pET-28a
Procedure: Recombinant WT and mutant His-TRADD-N(aal-179) protein fragment was expressed in BL21 (DE3) E. coli after induction with 0.5 mM IPTG overnight at 16C. ^15N-labeled TRADD-N domain protein was purified from E. co/i grown at 16C in minimal medium. Bacteria were harvested and disrupted by a high-pressure homogenizer and purified by Ni^2+ affinity resin (GE Healthcare). All proteins were further purified by size exclusion chromatograph on a Superdex 75 column (GE Healthcare) in a buffer containing 20 mM imidazole (pH6.6), 200 mM NaCl, 20 mM DTT and 0.05% NaN3. All NMR samples were in the same buffer at concentrations between 0.2-0.4 mM with 90% H2O/10% D2O. […]
To determine stability, purified proteins were made to a final concentration of 1 μg/l. […] The reaction was run from 25C, ramping up in increments of 0.05° C./s to a final temperature of 95C with fluorescence detection throughout the experiment to generate a dataset. Melting temperature of the protein (Tm) was determined by performing non-linear fitting of the dataset to a Boltzmann Sigmoidal curve in GraphPad Prism with the following equation: Y=Bottom+(Top-Bottom)/[1+exp(Tm-X/Slope)], where Y=fluorescence emission in arbitrary units; X=temperature; Bottom=baseline fluorescence at low temperature; Top=maximal fluorescence at top of the dataset; Slope=describes the steepness of the curve, with larger values denoting shallower curves.

[1] = tested on: PS19 mice injected with tau pffs; assay: Tau pff transmission model in PS19 mice, Apt-1 delivered intracerebroventricularly

T1 sequence (Q15628 1-179): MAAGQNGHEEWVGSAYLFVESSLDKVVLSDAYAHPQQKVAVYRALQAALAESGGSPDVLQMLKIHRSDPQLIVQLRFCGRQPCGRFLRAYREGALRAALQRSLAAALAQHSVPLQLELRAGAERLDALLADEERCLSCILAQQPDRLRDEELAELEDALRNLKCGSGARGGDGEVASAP

SMILES: CN1CCN=C1SC(C(=O)NC1CCCCCC1)c1ccccc1 (stereo not drawn) [Compound 30]
- increase of Tm of His-TRADD-N (His-TRADD-N): 3.7 °C
- survival or behavior of the mice ([1]; 20 mM Apt-1 ICV pump, one month or one week): no apparent difference in survival or behavior
- accumulation of tangle-like tau aggregates, delayed dosing ([1]; Apt-1 for 1 week, 3 weeks after pffs): effectively reduce the accumulation of tangle-like tau aggregates
- autophagy and levels of tau in hippocampus ([1]; FIG. 3a): induce autophagy and reduce the levels of tau
- neurofibrillary tangle-like pathogenesis induced by pffs (AT8, MC1) ([1]; FIG. 3b, 3c): reduced neurofibrillary tangle-like pathogenesis
- activated pRIPK1+ and apoptotic TUNEL+ cells in CA1 hippocampus ([1]; FIG. 3d, 3e): inhibited
